The record followed here is PMC6155662, “Trypanocidal Activity of Quinoxaline 1,4 Di-N-oxide Derivatives as Trypanothione Reductase Inhibitors” (Molecules : A Journal of Synthetic Chemistry and Natural …, 2017).

A value given as a limit tells only on which side of the number the result lay.

Series [1] deals with T. cruzi INC-5 epimastigotes. Description: Viability (MTT) assay on T. cruzi epimastigotes. The class given is cell-based, Trypanosoma cruzi. Particulars: Trypanosoma cruzi, 24 h, mean and SD of triplicate. The protocol:
In this study, two strains of T. cruzi isolated in Mexico were used. […] Epimastigotes were cultured in vitro in liver infusion-tryptose (LIT) medium supplemented with 10% heat inactivated fetal bovine serum (FBS) (Gibco) and 100 U/mL penicillin-streptomycin (In vitro S.A.), and incubated at 27 °C. CD1 mice, aged 6–8 weeks, were infected with T. cruzi to obtain bloodstream trypomastigote samples.
Viability assays of T. cruzi epimastigotes using 3-(4,5-dimethylthiazol-2-yl)-2,5-diphenyltetrazolium bromide (MTT) were performed. Briefly, the parasites were harvested during the exponential growth phase for a period of five days. In a 96-well microplate 1x10^6 epimastigotes were deposited in brain-heart infusion (BHI) medium supplemented with 10% FBS and 100 U/mL antibiotic-antifungal mixture (Gibco). […] Each well reached a final volume of 100 µL. Each condition was assessed in triplicate. The microplate was incubated for 24 h at 27 °C in darkness. Afterwards, 10 μL of a 5 mg/mL MTT solution was added and the plate was incubated for 20 h at 27 °C. Then 200 μL of 10% dodecyl sulfate (SDS)/0.1% HCl solution was added to dissolve formazan salts; the plate was incubated an additional 4 h. Finally, the plate was read at 570 nm in a spectrophotometer (Multiskan EX Thermo Electron, Taipei, Taiwan). The amount of viable cells was proportional to the amount of formazan produced. […] Later the results were converted to micromolar units. […] As a […] control, parasites were incubated only in culture medium with a 1% DMSO concentration, corresponding to the highest sample dilution of DMSO [34, 35, 36].

Series [2] in a line: Cytotoxicity assay (Alamar Blue) on macrophages. The class given is cell-based, murine. Particulars: mouse, J774A.1 macrophages, mean and SD of triplicate. The method, then: The murine macrophage cell line J774.A1 was maintained in culture flasks with RPMI 1640 medium supplemented with 10% FBS, 1% MEM-NEAA medium (Gibco) and 100 U/mL antibiotic-antifungal mixture (Gibco). Cells were incubated at 37 °C with 5% CO2 and humidity. Trypsinized J774.A1 macrophages were washed and viability was assessed by the trypan blue dye (Sigma-Aldrich, Toluca, Edo de Mexico, Mexico) exclusion assay. In a 96-well microplate, 50,000 macrophages were seeded per well and a dose-response assay was performed. Compounds were evaluated using six-fold serial dilutions ranging from 100 µg/mL to 0.3 µg/mL of final concentration. Each compound was tested in triplicate. After 20 h incubation, Alamar Blue was added (10% v/v) and cells were incubated for an additional 4 h period. Results were obtained as previously described and CC50 was calculated. As a negative control of cytotoxicity, cells were incubated only in the presence of 0.1% DMSO [39, 40].

For series [3], the system named is T. cruzi bloodstream trypomastigotes INC-5 strain. Kind of series: microbe, parasite or virus in culture. To be noted: Trypanosoma cruzi; for CC50: 24 h, bloodstream trypomastigotes, 24 h at 4 °C (called IC50 in abstract), read-out: LC50 INC-5 Strain; for killing at 50 µg/mL: 50 μg/mL, 24 h at 4 °C, infected mouse blood, read-out: % Lysis at 50 μg/mL INC-5 Strain. The class given is cell-based. The method, then:
(§1) In this study, two strains of T. cruzi isolated in Mexico were used. T. cruzi NINOA strain (MHOM/MX/1994/NINOA) was obtained from a patient with acute Chagas disease and T. cruzi INC-5 (MHOM/MX/1994/INC5) was isolated from a patient in the chronic phase of the disease. Epimastigotes were cultured in vitro in liver infusion-tryptose (LIT) medium supplemented with 10% heat inactivated fetal bovine serum (FBS) (Gibco) and 100 U/mL penicillin-streptomycin (In vitro S.A.), and incubated at 27 °C. CD1 mice, aged 6–8 weeks, were infected with T. cruzi to obtain bloodstream trypomastigote samples. Animal experiments were performed according to Norma Oficial Mexicana (NOM-062-Z00-1999) published on 22 August, 2009.
(§2) CD1 female mice 6–8 weeks old were infected with T. cruzi bloodstream trypomastigotes of the INC-5 and NINOA strains. The course of infection continued for 4–6 weeks. At the peak of parasitemia blood was obtained by cardiac puncture using sodium heparin as an anticoagulant. The blood was adjusted to 1 × 10^6 bloodstream trypomastigotes/mL.
(§3) In each well of the 96-well plate, 195 μL of infected blood and 5 μL of quinoxaline 1,4-di-N-oxide derivatives or reference drug dilutions were seeded, with each well reaching a final volume of 200 µL. Each assay was performed in triplicate. Initially, all compounds were tested at 50 μg/mL. […] As a negative control of lysis, wells with untreated blood trypomastigotes were used, and as a positive control, wells with the reference drugs were used. The microplates were incubated at 4 °C for 24 h. Bloodstream trypomastigotes were quantified by the method of Brener-Pizzi, 5 μL of blood were placed on a slide and covered with a coverslip 13 × 13 mm. The mobile protozoa were counted in 15 fields at 40× magnification using an optical microscope. The percentage lysis was determined by comparing the remaining trypomastigotes against the negative control. LC50 was determined with the Probit statistical tool. The results were later converted to micromolar units.

For series [4], the system named is T. cruzi bloodstream trypomastigotes NINOA strain. Kind of series: microbe, parasite or virus in culture. The class given is cell-based. To be noted: Trypanosoma cruzi; for LC50: 24 h; for killing at 50 µg/mL: 50 μg/mL, 24 h at 4 °C, infected mouse blood, read-out: % Lysis at 50 μg/mL NINOA Strain. The method, then: as §1, §2, §3

One may read the IC50 as the concentration needed to halve the response being measured. High values mean weaker potency in that assay, low ones greater potency in that assay. As a reminder, the LC50 is the concentration lethal to half of the exposed cells or organisms. A high value points to lower toxicity. Take `CC(C)OC(=O)c1ccc2c(c1)[n+]([O-])c(C(=O)c1ccccc1)c(C(F)(F)F)[n+]2[O-]` [Compound T-071, Isopropyl 2-benzoyl-3-trifluoromethylquinoxaline-7-carboxylate 1,4-di-N-oxide]: inhibition in series [1] was half-maximal at 4.03 ± 0.5 µM (IC50). The compound further came in with a CC50 at 24 h in series [2] of 6.7 ± 0.8 µM. In series [3], the CC50 amounted to 103 ± 8.3 µM and the killing at 50 µg/mL was 69.2 ± 5.1%. Moreover, in series [4], the LC50 was 97.8 ± 6.3 µM and the killing at 50 µg/mL is 58.8 ± 4.4%.

For the compound `CCOC(=O)Cc1c(C(=O)OCC)[n+]([O-])c2cc(C(=O)OC(C)C)ccc2[n+]1[O-]` [Compound T-067, Isopropyl ethyl-3-(2-ethoxy-2-oxoethyl) quinoxaline-2,7-dicarboxylate 1,4-di-N-oxide], the IC50 in series [1] is 12.1 ± 0.4 µM. The compound further came in with a CC50 at 24 h in series [2] of 44.4 ± 7.1 µM. The killing at 50 µg/mL in series [3] was 14.4 ± 9.2%; in series [4], 18.5 ± 2.2%.

`CCCOC(=O)c1ccc2c(c1)[n+]([O-])c(C(=O)c1cccs1)c(C(F)(F)F)[n+]2[O-]` [Compound T-089, n-Propil 2-(thiophene-2-carbonyl)-3-trifluoromethylquinoxaline-7-carboxylate 1,4-di-N-oxide]: the IC50 in series [1] came out at 7.59 ± 1.4 µM. In addition, the CC50 at 24 h in series [2] came out at 7.71 ± 0.7 µM. Also, in series [3], the CC50 is 122 ± 6.5 µM and the killing at 50 µg/mL amounted to 42 ± 6.5%. Further, in series [4], the LC50 turned out to be 115 ± 8.4 µM and the killing at 50 µg/mL worked out at 51.6 ± 3.4%.

With `CCCOC(=O)c1ccc2c(c1)[n+]([O-])c(C(N)=O)c(C)[n+]2[O-]` [Compound T-130, n-Propyl 2-amide-3-methylquinoxaline-7-carboxylate 1,4-di-N-oxide], inhibition in series [1] was half-maximal at 238 ± 11.5 µM (IC50). Further, the CC50 at 24 h in series [2] is greater than 326 µM. In addition, the killing at 50 µg/mL in series [3] is 0.69 ± 1.2%; in series [4], 4.65 ± 3.4%.

`CCCOC(=O)c1ccc2c(c1)[n+]([O-])c(C(C)=O)c(C)[n+]2[O-]` [Compound T-126, n-Propyl 2-acetyl-3-methylquinoxaline-7-carboxylate 1,4-di-N-oxide] came in with an IC50 in series [1] greater than 163 µM. Further, the CC50 at 24 h in series [2] was greater than 327 µM. Also, the killing at 50 µg/mL was 0% in series [3] and 17.7 ± 3.1% in series [4].

On to `COC(=O)c1c(C)[n+]([O-])c2ccc(C(=O)OC(C)C)cc2[n+]1[O-]` [Compound T-064, Isopropyl methyl-3-methyl-quinoxaline-2,7-dicarboxylate 1,4-di-N-oxide], for which inhibition in series [1] was half-maximal at 43.7 ± 8.6 µM (IC50). The CC50 at 24 h in series [2] turned out to be 135 ± 11.1 µM. Moreover, the killing at 50 µg/mL stood at 1.7 ± 2% in series [3] and 3.2 ± 2% in series [4].

The compound `CC(C)OC(=O)c1ccc2c(c1)[n+]([O-])c(C(=O)C(F)(F)C(F)(F)F)c(C(F)(F)F)[n+]2[O-]` [Compound T-118, Isopropyl 2-pentafluorocarbonyl-3-trifluoromethylquinoxaline-7-carboxylate 1,4-di N-oxide] registered a 50% inhibitory concentration (IC50) in series [1] of 72.2 ± 8 µM. For the same compound, in series [2], the CC50 at 24 h came out at 157 ± 6.3 µM. The killing at 50 µg/mL in series [3] came to 0%; in series [4] it was 34.4 ± 3.1%.

Compound `CC(C)OC(=O)c1ccc2c(c1)[n+]([O-])c(C(=O)c1ccco1)c(C(F)(F)F)[n+]2[O-]` [Compound T-073, Isopropyl 2-(furyl-2-carbonyl)-3-trifluoromethylquinoxaline-7-carboxylate 1,4-di-N-oxide] displayed an IC50 in series [1] of 33.7 ± 9.2 µM. Further, the CC50 at 24 h in series [2] worked out at 55.4 ± 2.9 µM. In addition, the killing at 50 µg/mL in series [3] was 22.1 ± 4.32%; in series [4] it was 35 ± 4.5%.

In series [1], `CCCOC(=O)c1ccc2c(c1)[n+]([O-])c(C(=O)OC)c(C)[n+]2[O-]` [Compound T-088, n-Propil methyl-3-methylquinoxaline-2,7-dicarboxylate 1,4-di-N-oxide] registered an IC50 of 139 ± 13.5 µM. In addition, the CC50 at 24 h in series [2] amounted to 143 ± 9.7 µM. The values for the killing at 50 µg/mL in series [3] and in series [4] were 33.6 ± 6.8% and 16.3 ± 11.1%, respectively.

The compound `CC(=O)c1c(C(F)(F)F)[n+]([O-])c2ccc(C(=O)OC(C)C)cc2[n+]1[O-]` [Compound T-070, Isopropyl 2-acetyl-3-trifluoromethylquinoxaline-7-carboxylate 1,4-di-N-oxide] registered a 50% inhibitory concentration (IC50) in series [1] of 2.83 ± 0.7 µM. The CC50 at 24 h in series [2] was 17.5 ± 0.7 µM. The killing at 50 µg/mL in series [3] was determined as 10.8 ± 5.4%; in series [4], 46 ± 2.7%.

Turning to `CC(C)OC(=O)c1ccc2c(c1)[n+]([O-])c(C(=O)C(C)(C)C)c(C(C)(C)C)[n+]2[O-]` [Compound T-107, Isopropyl 2-(tert-butyl-2-carbonyl)-3-tert-butylquinoxaline-7-carboxylate 1,4-di-N-oxide], in series [1], it took 91.7 ± 10.5 µM to reach half-maximal inhibition (IC50). Besides, the CC50 at 24 h in series [2] came to 164 ± 7.7 µM. Also, the killing at 50 µg/mL was 5.32 ± 3.8% in series [3] and 6.28 ± 4.7% in series [4].

In turn, `CCCOC(=O)c1ccc2c(c1)[n+]([O-])c(C(=O)OCC)c(C)[n+]2[O-]` [Compound T-090, n-Propil ethyl-3-methylquinoxaline-2,7-dicarboxylate 1,4-di-N-oxide] displayed an IC50 in series [1] of 155 ± 12.3 µM. This compound came in with a CC50 at 24 h in series [2] of 146 ± 9.2 µM. The killing at 50 µg/mL in series [3] is 47.3 ± 3.3%; in series [4], 28.6 ± 3.1%.

`Cc1c(C(=O)c2ccccc2)[n+]([O-])c2cc(C(=O)OC(C)C)ccc2[n+]1[O-]` [Compound T-098, Isopropyl 2-benzoyl-3-methylquinoxaline-7-carboxylate 1,4-di-N-oxide] gave an IC50 in series [1] of 142 ± 8.3 µM. In series [2], this compound returned a CC50 at 24 h of 140 ± 8.1 µM. Moreover, the killing at 50 µg/mL in series [3] was 0.34 ± 0.6%; in series [4], 6.89 ± 5.8%.

For `CCCOC(=O)c1ccc2c(c1)[n+]([O-])c(C(=O)OC(C)(C)C)c(C)[n+]2[O-]` [Compound T-091, n-Propil tert-butyl-3-methylquinoxaline-2,7-dicarboxylate 1,4-di-N-oxide], the IC50 in series [1] is greater than 137 µM. This compound also displayed a CC50 at 24 h in series [2] greater than 273 µM. For the same compound, the killing at 50 µg/mL stood at 8.15 ± 2.2% in series [3] and 7.3 ± 3.3% in series [4].

With `Cc1c(C(=O)OC(C)(C)C)[n+]([O-])c2cc(C(=O)OC(C)C)ccc2[n+]1[O-]` [Compound T-066, Isopropyl tert-butyl-3-methylquinoxaline-2,7-dicarboxylate 1,4-di-N-oxide], in series [1], the IC50 was greater than 137 µM. In addition, the CC50 at 24 h in series [2] is greater than 273 µM. Further, the killing at 50 µg/mL was 5.4 ± 3.7% in series [3] and 2.6 ± 4.3% in series [4].

As for `Cc1c(C(N)=O)[n+]([O-])c2cc(C(=O)OC(C)C)ccc2[n+]1[O-]` [Compound T-108, Isopropyl 2-amide-3-methyl-quinoxaline-7-carboxilate 1,4-di-N-óxide], the IC50 in series [1] amounted to 131 ± 12.3 µM. The compound also had a CC50 at 24 h in series [2] of 221 ± 9.4 µM. In addition, the killing at 50 µg/mL came to 18.8 ± 2.8% in series [3] and 12.8 ± 7.2% in series [4].
